Laboratory results reported in US20220160604A1, “EMULSION COMPOSITION COMPRISING ULTRAVIOLET WAVELENGTH CONVERSION SUBSTANCE AND ORGANIC OILY PHASE THICKENER” (Shiseido Company, Ltd., priority 2019, published 2022).

Test system: Human dermal fibroblasts
Assay: Cell activity (AlamarBlue) of cells irradiated with UV through a UV wavelength conversion substance
Assay type: cell-based
Conditions: for cell activity at UV irradiation (relative fluorescence intensity): UV dose 0, 10, 25, 50, 75 or 100 mJ/cm^2, FIG. 3
Procedure: 1. Human dermal fibroblasts and human skin keratinocytes purchased from Kurabo Industries Ltd. were used. A cell suspension (1 mL) stored in liquid nitrogen was thawed in a water bath (37° C.) to an extent that small ice pellets remained, and then diluted with 9 mL of warm medium.
10. Depending on the cell type, fibroblasts were resuspended in FGM or KGM at a concentration of 2×10^4 cells/well (500 μL), and keratinocytes were resuspended in FGM or KGM at a concentration of 4×10^4 cells/well (500 μL) and plated 24-well plates.
11. Cells were seeded in 24-well plates and the media were changed periodically (once every 2 days for fibroblasts and once every 2 to 3 days for keratinocytes) and the cells were grown until 60 to 70% confluence (depending on the type of experiment) was reached. (Note: Fibroblasts should reach the desired confluency in 24 hours at a cell density of 2×10^4 cells/well. When the cell density is low, for example, 1×10^4 cells/well, it takes 48 hours for fibroblasts to reach the desired confluency.)
12. 24 hours before irradiation, the medium was changed to a supplement-free medium (in the case of keratinocytes) or a medium containing a low concentration of serum (0.5% FCS) (in the case of fibroblasts).
1. A solar simulator was turned on at least 30 minutes before irradiation to warm up a lamp. The solar simulator was set to use a UG11 filter. UG11 filters are filters that allow only UVB to pass and cut light of other wavelengths.
3. The cells prepared in Experiment 1-2 were washed once with warm PBS.
4. To each well was added 0.5 mL of a warmed Martinez solution (145 mM NaCl, 5.5 mM KCl, 1.2 mM MgCl2.6H2O, 1.2 mM NaH2PO4.2H2O, 7.5 mM HEPES, 1 mM CaCl2, and 10 mM D-glucose).
5. As depicted in FIG. 1, cell wells were placed on a plate. Then, 0.4 ml of a solution containing the UV wavelength conversion substances (1) to (4) prepared in Experiment 1-1 was injected into each well of a 24-well plate. […]
4. Fluorescence measurement values at 544 nm/590 nm were read using a fluorometer (OPwave +, Ocean Photonics). […]

## C-phycocyanin
0.4% C-phycocyanin solution
  cell activity at UV irradiation (relative fluorescence intensity): the decrease in cell activity was suppressed
2% C-phycocyanin solution
  cell activity at UV irradiation (relative fluorescence intensity): the cell activity was even increased
pre-irradiation 400 mJ/cm^2 without substance, then UV 0-200 mJ/cm^2 through 0.4% or 2% C-phycocyanin (effect equivalent at both), FIG. 5
  cell activity of cells having activity temporarily reduced by UV (relative fluorescence intensity): cell activity was recovered
